Assay results taken from ChEMBL document CHEMBL1201862, “PubChem BioAssay data set” (2004).
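Interpolation was linear, between the two tested concentrations surrounding the appropriate level; five concentrations were tested over 48 hours in 96-well plates. At the GI50, growth is halved.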 The source made the active and inactive calls. No stated cut-off is given here; in the data, active = GI50 up to about 1.1 µM and inactive = higher.

Legend:
Assay in all cases: NCI-60 cell line screen, 48 h
XF498 = tested on: XF498
KM-20L2 = tested on: KM-20L2
DLD-1 = tested on: DLD-1
HOP-18 = tested on: HOP-18
DMS-114 = tested on: DMS-114
M19-MEL = tested on: M19-MEL
DMS-273 = tested on: DMS-273
LXFL 529 = tested on: LXFL 529
RXF 631 = tested on: RXF 631

Compound	GI50 (XF498)	GI50 (KM-20L2)	GI50 (DLD-1)	GI50 (HOP-18)	GI50 (DMS-114)	GI50 (M19-MEL)	GI50 (DMS-273)	GI50 (LXFL 529)	GI50 (RXF 631)
CC(C)c1cc(OCC(O)CO)cc(C(C)C)c1 (stereo unspecified)	> 100 µM (inactive)	> 100 µM (inactive)	> 100 µM (inactive)	> 100 µM (inactive)	> 100 µM (inactive)	> 100 µM (inactive)	> 100 µM (inactive)	> 100 µM (inactive)	–
CCOC(=N)CC(=O)Nc1ccccc1CC	> 100 µM (inactive)	> 100 µM (inactive)	> 100 µM (inactive)	> 100 µM (inactive)	–	> 100 µM (inactive)	> 100 µM (inactive)	> 100 µM (inactive)	> 100 µM (inactive)
NS(=O)(=O)c1cc2c(cc1Cl)NC(C(=O)NNC(=O)c1ccncc1)=NS2(=O)=O	> 100 µM (inactive)	> 100 µM (inactive)	> 100 µM (inactive)	> 100 µM (inactive)	> 100 µM (inactive)	> 100 µM (inactive)	> 100 µM (inactive)	> 100 µM (inactive)	–
CC(C)(C)C#C[P+](c1ccccc1)(c1ccccc1)c1ccccc1	–	0.345 µM (active)	0.191 µM (active)	0.855 µM (active)	–	–	–	0.0586 µM (active)	1 µM (active)
CC1=C(C(=O)Nc2ccc([N+](=O)[O-])cc2)C(c2ccc3c(c2)OCO3)C(C(=O)Nc2ccc([N+](=O)[O-])cc2)=C(C)N1	–	28 µM (inactive)	12 µM (inactive)	23.3 µM (inactive)	8.55 µM (inactive)	13.3 µM (inactive)	9.77 µM (inactive)	7.96 µM (inactive)	–
O=c1[nH]c(-c2ccccc2)nc2cc(Cl)ccc12	> 100 µM (inactive)	> 100 µM (inactive)	> 100 µM (inactive)	–	> 100 µM (inactive)	> 100 µM (inactive)	> 100 µM (inactive)	> 100 µM (inactive)	> 100 µM (inactive)
CC(C)NCC(O)COC(=O)c1cccs1 (stereo unspecified)	> 100 µM (inactive)	> 100 µM (inactive)	> 100 µM (inactive)	–	–	> 100 µM (inactive)	> 100 µM (inactive)	> 100 µM (inactive)	> 100 µM (inactive)
Cc1cc(=O)oc2cc(OCCCOc3ccc4c(C)cc(=O)oc4c3)ccc12	31.3 µM (inactive)	> 100 µM (inactive)	> 100 µM (inactive)	–	> 100 µM (inactive)	> 100 µM (inactive)	91.4 µM (inactive)	> 100 µM (inactive)	> 100 µM (inactive)
COc1ccc2nc3c(c(NCCCN(C)C)c2c1)CCCC3	4.15 µM (inactive)	6.7 µM (inactive)	7.66 µM (inactive)	–	13.9 µM (inactive)	17.1 µM (inactive)	11.8 µM (inactive)	12.7 µM (inactive)	14.9 µM (inactive)
COc1ccc(O)c(C#N)c1C#N	> 100 µM (inactive)	> 100 µM (inactive)	–	–	–	> 100 µM (inactive)	> 100 µM (inactive)	> 100 µM (inactive)	–
Cn1nc(-c2ccccc2)c(C(=O)/C=C/c2ccc(F)cc2)c(N2CCCCC2)c1=O	21.1 µM (inactive)	5.18 µM (inactive)	3.61 µM (inactive)	5.66 µM (inactive)	3.86 µM (inactive)	8.36 µM (inactive)	4.03 µM (inactive)	4.68 µM (inactive)	8.61 µM (inactive)
O=C(CCn1[nH]c(=O)c(Cl)c(Cl)c1=O)NNC(=O)C[n+]1ccccc1	> 100 µM (inactive)	> 100 µM (inactive)	> 100 µM (inactive)	> 100 µM (inactive)	> 100 µM (inactive)	> 100 µM (inactive)	> 100 µM (inactive)	> 100 µM (inactive)	> 100 µM (inactive)
O=C(O)CN(c1ccccc1)S(=O)(=O)c1ccc(NC(=O)c2ccccc2)cc1	> 100 µM (inactive)	> 100 µM (inactive)	> 100 µM (inactive)	> 100 µM (inactive)	–	> 100 µM (inactive)	> 100 µM (inactive)	> 100 µM (inactive)	–
CO[C@@]12[C@H](COC(N)=O)C3=C(C(=O)C(C)=C(N)C3=O)N1C[C@H]1[C@@H]2N1C (stereo partly specified) [PORFIROMYCIN]	3.61 µM (inactive)	7.98 µM (inactive)	9.62 µM (inactive)	4.75 µM (inactive)	–	2.74 µM (inactive)	0.401 µM (active)	–	–
COc1cc(C[C@H]2c3cc(OC)c(OC)cc3CCN2C)c(Oc2cc3c(cc2OC)-c2c(OC)c(OC)cc4c2[C@H](C3)N(C)CC4)cc1OC [THALICARPINE]	8.97 µM (inactive)	4.53 µM (inactive)	15.1 µM (inactive)	–	9.1 µM (inactive)	8.87 µM (inactive)	10.7 µM (inactive)	11 µM (inactive)	5.52 µM (inactive)
